Measurements taken from PubChem BioAssay AID588787 (The Scripps Research Institute Molecular Screening Center, 2011).
Activity calls are given as the source filed them.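 Rule for the calls: active = pPAFAH enzyme ratio at or below 0.5 while fewer than two other serine hydrolases drop that low; inactive = the rest.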

How the values were obtained:
Test in all cases: serine hydrolase selectivity in soluble brain proteome, late-stage follow-up, selectivity assay for pPAFAH inhibitor project, biochemical, LC-MS/MS, mouse brain soluble proteome (AID 588787)
[1] = target: Prolyl endopeptidase (Mus musculus) (UniProt Q9QUR6); conditions: ABPP-MudPIT FP-biotin spectral counts, Prep, at 1 µM, stronger effect = lower value
Acot7 = conditions: ABPP-MudPIT FP-biotin spectral counts, at 1 µM, stronger effect = lower value
Lipe = conditions: ABPP-MudPIT FP-biotin spectral counts, at 1 µM, stronger effect = lower value
Pafah1b3 = conditions: ABPP-MudPIT FP-biotin spectral counts, at 1 µM, stronger effect = lower value
Apeh = conditions: ABPP-MudPIT FP-biotin spectral counts, at 1 µM, stronger effect = lower value
Tpp2 = conditions: ABPP-MudPIT FP-biotin spectral counts, at 1 µM, stronger effect = lower value
Lypla2 = conditions: ABPP-MudPIT FP-biotin spectral counts, at 1 µM, stronger effect = lower value
Lyplal1 = conditions: ABPP-MudPIT FP-biotin spectral counts, at 1 µM, stronger effect = lower value
Abhd11 = conditions: ABPP-MudPIT FP-biotin spectral counts, at 1 µM, stronger effect = lower value
Acot2 = conditions: ABPP-MudPIT FP-biotin spectral counts, at 1 µM, stronger effect = lower value
Es1 = conditions: ABPP-MudPIT FP-biotin spectral counts, at 1 µM, stronger effect = lower value
[2] = target: Platelet-activating factor acetylhydrolase (Mus musculus) (UniProt Q60963); conditions: ABPP-MudPIT FP-biotin spectral counts, Pla2g7 (pPAFAH), at 1 µM, stronger effect = lower value
Fasn = conditions: ABPP-MudPIT FP-biotin spectral counts, at 1 µM, stronger effect = lower value
Abhd4 = Abhd4 (UniProt Q8VD66); conditions: ABPP-MudPIT FP-biotin spectral counts, at 1 µM, stronger effect = lower value
Magl = conditions: ABPP-MudPIT FP-biotin spectral counts, at 1 µM, stronger effect = lower value
Pla2g15 = conditions: ABPP-MudPIT FP-biotin spectral counts, at 1 µM, stronger effect = lower value
Rbbp9 = conditions: ABPP-MudPIT FP-biotin spectral counts, at 1 µM, stronger effect = lower value
Dpp8 = conditions: ABPP-MudPIT FP-biotin spectral counts, at 1 µM, stronger effect = lower value
Acot1 = conditions: ABPP-MudPIT FP-biotin spectral counts, at 1 µM, stronger effect = lower value
Dpp9 = conditions: ABPP-MudPIT FP-biotin spectral counts, at 1 µM, stronger effect = lower value
Pafah1b2 = conditions: ABPP-MudPIT FP-biotin spectral counts, at 1 µM, stronger effect = lower value
[3] = target: Acyl-protein thioesterase 1 (Mus musculus) (UniProt P97823); conditions: ABPP-MudPIT FP-biotin spectral counts, Lypla1, at 1 µM, stronger effect = lower value
Pme1 = conditions: ABPP-MudPIT FP-biotin spectral counts, at 1 µM, stronger effect = lower value
Prepl = conditions: ABPP-MudPIT FP-biotin spectral counts, at 1 µM, stronger effect = lower value
Esd = conditions: ABPP-MudPIT FP-biotin spectral counts, at 1 µM, stronger effect = lower value
[4] = target: Palmitoyl-protein thioesterase ABHD10, mitochondrial (Mus musculus) (UniProt Q6PE15); conditions: ABPP-MudPIT FP-biotin spectral counts, at 1 µM, stronger effect = lower value
Chain of Palmitoyl-protein thioesterase ABHD10, mitochondrial (Mus musculus) (Q6PE15 whole entry, looked up): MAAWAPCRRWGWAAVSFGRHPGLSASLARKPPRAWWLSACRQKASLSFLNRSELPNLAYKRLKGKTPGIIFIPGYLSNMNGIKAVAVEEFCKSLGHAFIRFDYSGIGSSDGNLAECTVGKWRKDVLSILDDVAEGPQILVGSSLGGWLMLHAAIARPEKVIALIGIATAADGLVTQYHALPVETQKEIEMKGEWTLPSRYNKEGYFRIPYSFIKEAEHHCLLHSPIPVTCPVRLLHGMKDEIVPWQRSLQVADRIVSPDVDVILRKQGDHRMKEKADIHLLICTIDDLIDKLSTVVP

Chain of Acyl-protein thioesterase 1 (Mus musculus) (P97823 whole entry, looked up): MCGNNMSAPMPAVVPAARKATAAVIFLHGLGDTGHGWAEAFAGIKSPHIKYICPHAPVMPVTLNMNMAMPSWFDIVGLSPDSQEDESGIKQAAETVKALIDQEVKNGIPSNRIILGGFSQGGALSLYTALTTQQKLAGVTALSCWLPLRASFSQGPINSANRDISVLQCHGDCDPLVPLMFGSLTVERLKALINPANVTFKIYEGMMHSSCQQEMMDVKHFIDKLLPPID
Chain of Prolyl endopeptidase (Mus musculus) (Q9QUR6 whole entry, looked up): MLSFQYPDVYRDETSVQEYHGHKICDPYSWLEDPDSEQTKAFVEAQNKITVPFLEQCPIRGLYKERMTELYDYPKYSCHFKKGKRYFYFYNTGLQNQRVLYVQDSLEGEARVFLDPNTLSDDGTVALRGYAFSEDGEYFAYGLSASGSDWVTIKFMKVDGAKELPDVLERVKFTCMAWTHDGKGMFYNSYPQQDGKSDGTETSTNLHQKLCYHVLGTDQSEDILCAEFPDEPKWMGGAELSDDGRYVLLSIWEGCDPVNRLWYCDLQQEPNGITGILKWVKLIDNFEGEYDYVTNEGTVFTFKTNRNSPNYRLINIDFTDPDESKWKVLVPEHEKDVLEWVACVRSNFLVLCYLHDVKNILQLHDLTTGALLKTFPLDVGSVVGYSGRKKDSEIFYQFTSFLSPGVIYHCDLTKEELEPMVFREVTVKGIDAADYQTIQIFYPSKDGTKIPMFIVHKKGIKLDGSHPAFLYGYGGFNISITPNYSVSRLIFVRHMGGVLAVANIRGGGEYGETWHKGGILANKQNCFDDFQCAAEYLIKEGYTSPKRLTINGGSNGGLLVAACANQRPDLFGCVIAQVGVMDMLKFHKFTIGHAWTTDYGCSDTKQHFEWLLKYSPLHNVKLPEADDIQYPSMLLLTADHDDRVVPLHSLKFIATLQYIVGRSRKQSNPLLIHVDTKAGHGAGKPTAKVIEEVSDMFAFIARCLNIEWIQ
Chain of Platelet-activating factor acetylhydrolase (Mus musculus) (Q60963 whole entry, looked up): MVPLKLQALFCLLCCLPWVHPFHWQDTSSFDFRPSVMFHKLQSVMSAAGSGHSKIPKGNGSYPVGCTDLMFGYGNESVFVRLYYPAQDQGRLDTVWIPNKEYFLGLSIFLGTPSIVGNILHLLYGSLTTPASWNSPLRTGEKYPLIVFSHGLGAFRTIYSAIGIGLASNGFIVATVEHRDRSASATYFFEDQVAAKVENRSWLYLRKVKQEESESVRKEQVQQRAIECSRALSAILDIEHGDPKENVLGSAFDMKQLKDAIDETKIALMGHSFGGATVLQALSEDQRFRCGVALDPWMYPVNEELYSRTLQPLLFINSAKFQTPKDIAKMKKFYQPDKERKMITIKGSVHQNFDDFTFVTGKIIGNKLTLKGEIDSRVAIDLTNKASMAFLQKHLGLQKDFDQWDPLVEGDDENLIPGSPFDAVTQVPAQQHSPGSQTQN
Chain of Abhd4 (Q8VD66 whole entry, looked up): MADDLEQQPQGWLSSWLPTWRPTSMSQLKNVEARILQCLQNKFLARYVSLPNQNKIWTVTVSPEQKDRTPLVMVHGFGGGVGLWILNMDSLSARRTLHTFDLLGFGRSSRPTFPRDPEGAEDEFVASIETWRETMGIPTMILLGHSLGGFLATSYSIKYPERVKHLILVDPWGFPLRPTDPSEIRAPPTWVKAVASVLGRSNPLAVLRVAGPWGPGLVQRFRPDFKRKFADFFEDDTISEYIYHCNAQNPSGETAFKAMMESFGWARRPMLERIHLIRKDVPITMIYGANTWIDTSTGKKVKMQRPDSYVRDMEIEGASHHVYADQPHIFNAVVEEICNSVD

- ratio of spectral counts to DMSO [1]: 1.2 (inactive)
- ratio of spectral counts to DMSO (Acot7): 0.8 (inactive)
- ratio of spectral counts to DMSO (Lipe): 0.9 (inactive)
- ratio of spectral counts to DMSO (Pafah1b3): 1.2 (inactive)
- ratio of spectral counts to DMSO (Apeh): 1.1 (inactive)
- ratio of spectral counts to DMSO (Tpp2): 0.8 (inactive)
- ratio of spectral counts to DMSO (Lypla2): 1.3 (inactive)
- ratio of spectral counts to DMSO (Lyplal1): 1.1 (inactive)
- ratio of spectral counts to DMSO (Abhd11): 1.2 (inactive)
- ratio of spectral counts to DMSO (Acot2): 1.1 (inactive)
- ratio of spectral counts to DMSO (Es1): 0
- ratio of spectral counts to DMSO [2]: 0
- ratio of spectral counts to DMSO (Fasn): 1.1 (inactive)
- ratio of spectral counts to DMSO (Abhd4): 0.8 (inactive)
- ratio of spectral counts to DMSO (Magl): 0.8 (inactive)
- ratio of spectral counts to DMSO (Pla2g15): 1.1 (inactive)
- ratio of spectral counts to DMSO (Rbbp9): 1.1 (inactive)
- ratio of spectral counts to DMSO (Dpp8): 1.1 (inactive)
- ratio of spectral counts to DMSO (Acot1): 1.1 (inactive)
- ratio of spectral counts to DMSO (Dpp9): 1.3 (inactive)
- ratio of spectral counts to DMSO (Pafah1b2): 1.4 (inactive)
- ratio of spectral counts to DMSO [3]: 1.1 (inactive)
- ratio of spectral counts to DMSO (Pme1): 1.1 (inactive)
- ratio of spectral counts to DMSO (Prepl): 1.1 (inactive)
- ratio of spectral counts to DMSO (Esd): 1.1 (inactive)
- ratio of spectral counts to DMSO [4]: 1.1 (inactive)
Compound: Cc1cc(N2CCN(C(=O)Oc3ccc(-c4ccccc4)cn3)CC2)c2ccccc2n1
